Measurements reported in patent publication US20130272962A1, “STAINING AGENT FOR CORNEAL STAINING” (FLUORON GMBH, priority 2012, published 2013).

Columns and labels:
[1] = tested on: cornea; settings: Ünlü et al. 2000; Gamal Eldin et al. 1999; cited from earlier work
[2] = tested on: Human Retinal Pigment Epithelium in Vitro; settings: Wu et al. 2005; cited from earlier work
[3] = Ito et al. 2004; cited from earlier work
[4] = Staining of ophthalmic membranes
[5] = Solubility of the dyestuff in liquids for application in the eye; format: physicochemical; settings: for solubility in liquids suitable for application in the anterior and posterior region of the eye: balanced salt solution (BSS), water for injection; for solubility in liquids that are heavier than water: ≧1.01 g/cm^3, e.g. polyethylene glycol
[6] = tested on: Human Corneal Epithelial Cells; settings: intensified by interaction with light; Kim et al. 1999; cited from earlier work
[7] = tested on: eukaryotes; settings: cited from earlier work
[8] = tested on: Human Retinal Pigment Epithelial Cells; settings: Veckeneer et al. 2002 (rabbit eyes); Rezai et al. 2004; cited from earlier work
[9] = Cahen 1964; product information BLURHEX; cited from earlier work

CN(C)c1ccc(C(=C2C=CC(=[N+](C)C)C=C2)c2ccc(N(C)C)cc2)cc1 [Gentian violet]
corneal oedema [1]: cause corneal oedemas

CC1(C)C(/C=C/C=C/C=C/C=C2\N(CCCCS(=O)(=O)O)c3ccc4ccccc4c3C2(C)C)=[N+](CCCCS(=O)(=O)[O-])c2ccc3ccccc3c21 [ICG, indocyanine green]
phototoxicity [2]: phototoxic
cytotoxicity [3]: cytotoxic

CCN(CC)c1ccc(C(=C2C=CC(=[N+](CC)Cc3cccc(S(=O)(=O)[O-])c3)C=C2)c2ccc(N(CC)Cc3cccc(S(=O)(=O)O)c3)cc2)cc1 [Acid Violet 17]
coloring of the inner limiting membrane (ILM) and the anterior and posterior lens capsules [4]: capable of coloring both the inner limiting membrane (ILM) and the anterior and posterior lens capsules
staining of the cornea or constituents thereof [4]: capable of staining the cornea or constituents thereof
solubility in liquids suitable for application in the anterior and posterior region of the eye [5]: very readily soluble
solubility in liquids that are heavier than water [5]: very readily soluble

O=C([O-])c1c(Cl)c(Cl)c(Cl)c(Cl)c1-c1c2cc(I)c(=O)c(I)c-2oc2c(I)c([O-])c(I)cc12.[Na+].[Na+] [Rose bengal]
cytotoxicity [6]: cytotoxic

[2H]O[2H] [Heavy water, D2O]
concentration in water tolerated by eukaryotes [7]: ≤ 20%

CCOc1ccc(Nc2ccc(/C(=C3C=C/C(=[N+](/CC)Cc4cccc(S(=O)(=O)[O-])c4)C=C/3C)c3ccc(N(CC)Cc4cccc(S(=O)(=O)[O-])c4)cc3C)cc2)cc1.[Na+] [BBG, Brilliant Blue G]
coloring of the inner limiting membrane (ILM) and the anterior and posterior lens capsules [4]: capable of coloring both the inner limiting membrane (ILM) and the anterior and posterior lens capsules
staining of the cornea or constituents thereof [4]: capable of staining the cornea or constituents thereof
solubility in liquids suitable for application in the anterior and posterior region of the eye [5]: very readily soluble
solubility in liquids that are heavier than water [5]: very readily soluble

Cc1cc(-c2ccc(/N=N/c3c(S(=O)(=O)O)cc4cc(S(=O)(=O)O)cc(N)c4c3O)c(C)c2)ccc1/N=N/c1c(S(=O)(=O)O)cc2cc(S(=O)(=O)O)cc(N)c2c1O [trypan blue]
cytotoxicity [8]: cytotoxic
teratogenic or mutagenic effect [9]: teratogenic or mutagenic effect
